From ChEMBL document CHEMBL1147920, “Identification of a novel class of succinyl-nitrile-based Cathepsin S inhibitors” (Bioorg Med Chem Lett, 2007) come the findings set out here.

This assay has as its target Cathepsin S (Homo sapiens, UniProt P25774). Briefly: Inhibition of human cathepsin S.

Sequence of Cathepsin S (P25774 whole entry): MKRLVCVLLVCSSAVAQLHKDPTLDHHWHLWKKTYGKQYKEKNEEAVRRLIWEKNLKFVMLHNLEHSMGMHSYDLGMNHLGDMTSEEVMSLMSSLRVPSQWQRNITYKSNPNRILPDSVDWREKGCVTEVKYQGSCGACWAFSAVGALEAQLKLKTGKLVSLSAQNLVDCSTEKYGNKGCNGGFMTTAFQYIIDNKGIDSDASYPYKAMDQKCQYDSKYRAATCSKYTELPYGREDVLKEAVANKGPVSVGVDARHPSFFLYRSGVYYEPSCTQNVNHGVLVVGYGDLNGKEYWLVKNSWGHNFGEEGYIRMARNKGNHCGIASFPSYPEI

Turning to `N#C[C@@]1(NC(=O)[C@@H](CC(=O)N2CCOCC2)CC2Cc3ccccc3C2)CCN(C2CCCCC2)C1`, the IC50 (in general, the concentration at which inhibition is half-maximal) was determined as 42 nM and binding was characterised by a dissociation constant (Kd) of 23.1 nM.
In the same order, the values of `N#C[C@H](COCc1ccc(Cl)cc1)NC(=O)[C@@H](CC(=O)N1CCOCC1)CC1CCCCC1` are 62 nM and 4.86 nM.
In the same order, the values of `N#C[C@H](CCc1ccccc1)NC(=O)[C@@H](CC(=O)N1CCOCC1)CC1CCCCC1` are 171 nM and 25 nM.
For the compound `N#CC1(NC(=O)[C@@H](CC(=O)N2CCOCC2)CC2CCCCC2)CCN(Cc2ccccc2)CC1`, half-maximal inhibition (IC50) was put at 207 nM and the Kd – broadly, the constant that tells how readily two partners part at equilibrium – is 52 nM.
In the same order, the values of `CN1CCC(C#N)(NC(=O)[C@@H](CC(=O)N2CCOCC2)CC2CCCCC2)CC1` are 251 nM and 177 nM.
On the same counts, the results for `N#C[C@@]1(NC(=O)[C@@H](CC(=O)N2CCOCC2)CC2CCCCC2)CCN(C2CCCCC2)C1` are 23 nM and 17.8 nM.
On the same counts, the results for `N#C[C@]1(NC(=O)[C@@H](CC(=O)N2CCOCC2)CC2CCCCC2)CCN(CC2CCCCC2)C1` are 41 nM and 13.8 nM.
`N#C[C@]1(NC(=O)[C@@H](CC(=O)N2CCOCC2)CC2CCCCC2)CCN(Cc2ccccc2)C1` showed an IC50 of 29 nM and a Kd of 3.64 nM.
On the same counts, the results for `N#C[C@@]1(NC(=O)[C@@H](CC(=O)N2CCOCC2)CC2CCCCC2)CCN(CCc2ccccc2)C1` are 22.3 nM and 15.2 nM.
In the same order, the values of `CC1CCC(C[C@H](CC(=O)N2CCOCC2)C(=O)N[C@]2(C#N)CCN(C3CCCCC3)C2)CC1` (some centres undefined) are 14 nM and 13.8 nM.
In the same order, the values of `N#C[C@@]1(NC(=O)[C@@H](CC(=O)N2CCOCC2)CC2CCc3ccccc3C2)CCN(C2CCCCC2)C1` (some centres undefined) are 1.9 nM and 5.4 nM.
Consider `N#C[C@@]1(NC(=O)[C@@H](CC(=O)N2CCOCC2)CC2CCC(c3ccccc3)CC2)CCN(C2CCCCC2)C1` (some centres undefined), for which the IC50 was 3140 nM.
Turning to `CC(C)CN1CC[C@@](C#N)(NC(=O)[C@@H](CC(=O)N2CCOCC2)CC2CCCCC2)C1`, the IC50 turned out to be 39 nM and binding was put at a Kd of 53.3 nM.
In turn, `N#C[C@@]1(NC(=O)[C@@H](CC(=O)N2CCOCC2)CC2CCCCC2)CCN(C2CCCC2)C1` came in with an IC50 of 75 nM. That is a double-digit nanomolar value.
On to `N#C[C@@]1(NC(=O)[C@@H](CC(=O)N2CCOCC2)CC2CCCCC2)CCN(CC2CC2)C1`, for which the IC50 is 22 nM and the Kd worked out at 20 nM.
In turn, `N#C[C@H](COCc1ccccc1)NC(=O)[C@@H](CC(=O)N1CCOCC1)CC1CCCCC1` returned an IC50 of 37 nM and a dissociation constant (Kd) of 4.39 nM.
Compound `N#CC1(NC(=O)[C@@H](CC(=O)N2CCOCC2)CC2CCCCC2)CC1` yielded an IC50 of 135 nM and a Kd of 12 nM.
The compound `CN1CC[C@@](C#N)(NC(=O)[C@@H](CC(=O)N2CCOCC2)CC2CCCCC2)C1` showed an IC50 of 155 nM and a dissociation constant (Kd) of 161 nM.
On the same counts, the results for `CC(C)N1CC[C@@](C#N)(NC(=O)[C@@H](CC(=O)N2CCOCC2)CC2CCCCC2)C1` are 66 nM and 60.6 nM.
On the same counts, the results for `N#C[C@@]1(NC(=O)[C@@H](CC(=O)N2CCOCC2)CC2CCCC2)CCN(C2CCCCC2)C1` are 63 nM and 59 nM.
With `CC1(C[C@H](CC(=O)N2CCOCC2)C(=O)N[C@]2(C#N)CCN(C3CCCCC3)C2)CCCCC1`, half-maximal inhibition (IC50) required 47 nM and the Kd was 77.3 nM.
On the same counts, the results for `N#C[C@@]1(NC(=O)[C@@H](CC(=O)N2CCOCC2)CC2CCCCC2)CCNC1` are 141 nM and 123 nM.
On the same counts, the results for `N#C[C@@]1(NC(=O)[C@@H](CC(=O)N2CCOCC2)CC2CCCCC2)CCN(C2CCCCCC2)C1` are 23 nM and 11 nM.
